IC50 data for 25 compounds are collected here from patent publication US10174024B2, “5H-pyrido[3,2-B]indole compounds as anticancer agents” (BRISTOL-MYERS SQUIBB COMPANY, priority 2015, dated 2019).

pIC50: −log10 of the molar value.

As a reminder, the pIC50 is the negative decadic logarithm of the IC50, by convention in mol/L.

This assay concerns the target BRD4 (Homo sapiens, UniProt O60885). Nature of the assay: Time Resolved Fluorescence Resonance Energy Transfer (TR-FRET) binding assay, FRET BRD4. Conditions: one of the FRET assays described (BRD4 bromodomain construct not specified); read-out: FRET BRD4 IC50. For orientation: In TR-FRET formats the signal depends on donor and acceptor labels being close together.

`[2H]C([2H])([2H])c1nnn(C)c1-c1cnc2c3ccc(N4CCOC4=O)c(F)c3n([C@H](c3ccccc3)C3CCOCC3)c2c1` [Example 60, 3-{6-Fluoro-3-[4-(^2H3)methyl-1-methyl-1H-1,2,3-triazol-5-yl]-5-[(S)-oxan-4-yl(phenyl)methyl]-5H-pyrido[3,2-b]indol-7-yl}-1,3-oxazolidin-2-one]: the pIC50 was > 9.00.

On to `[2H]C([2H])([2H])c1nnn(C)c1-c1cnc2c3c(N4CCCS4(=O)=O)ccc(S(C)(=O)=O)c3n([C@H](c3ccccc3F)C3CCOCC3)c2c1` [Example 34, 2-{5-[(S)-(2-Fluorophenyl)(oxan-4-yl)methyl]-6-methanesulfonyl-3-[4-(^2H3)methyl-1-methyl-1H-1,2,3-triazol-5-yl]-5H-pyrido[3,2-b]indol-9-yl}-1λ^6,2-thiazolidine-1,1-dione], for which the pIC50 is > 9.00. Under `[2H]C([2H])([2H])c1nnn(C)c1-c1cnc2c3ccc(C4(O)CCOC4)c(F)c3n([C@H](c3ccccc3)C3CCOCC3)c2c1` (stereo partly drawn) [Example 64, 3-{6-Fluoro-3-[4-(^2H3)methyl-1-methyl-1H-1,2,3-triazol-5-yl]-5-[(S)-oxan-4-yl(phenyl)methyl]-5H-pyrido[3,2-b]indol-7-yl}oxolan-3-ol] stands > 9.00; under `[2H]C([2H])([2H])Oc1nnn(C)c1-c1ccc2c3ncc(-c4c(OC([2H])([2H])[2H])nnn4C)cc3n([C@H](c3ccccc3)C3CCOCC3)c2c1` [Example 29, 4-(^2H3)Methoxy-5-{7-[4-(^2H)methoxy-1-methyl-1H-1,2,3-triazol-5-yl]-5-[(S)-oxan-4-yl-(phenyl)methyl]-5H-pyrido[3,2-b]indol-3-yl}-1-methyl-1H-1,2,3-triazole], > 8.30; under `[2H]C([2H])([2H])c1nnn(C)c1-c1ccc2c3ncc(-c4c(C([2H])([2H])[2H])nnn4C)cc3n(C(c3ncccc3F)C3CCOCC3)c2c1` (stereo not shown) [Example 28, 2-({3,7-Bis[4-(^2H3)methyl-1-methyl-1H-1,2,3-triazol-5-yl]-5H-pyrido[3,2-b]indol-5-yl}(oxan-4-yl)methyl)-3-fluoropyridine], > 8.30. Under `[2H]C([2H])([2H])c1nnn(C)c1-c1cnc2c3c(N4CCC(F)(F)CC4)ccc(S(C)(=O)=O)c3n(C(c3ccccc3)C3CCC(F)(F)CC3)c2c1` (stereo not shown) [Example 73, 1-{5-[(4,4-Difluorocyclohexyl)(phenyl)methyl]-6-methanesulfonyl-3-[4-(^2H3)methyl-1-methyl-1H-1,2,3-triazol-5-yl]-5H-pyrido[3,2-b]indol-9-yl}-4,4-difluoropiperidine] stands > 5.82; under `[2H]C([2H])([2H])c1nnn(C)c1-c1cnc2c3c(N4CCCS4(=O)=O)ccc(S(C)(=O)=O)c3n([C@]([2H])(c3ccccc3F)C3CCOCC3)c2c1` [Example 37, 2-{5-[(S)-(2-Fluorophenyl)(oxan-4-yl)(^2H)methyl]-6-methanesulfonyl-3-[4-(^2H3)methyl-1-methyl-1H-1,2,3-triazol-5-yl]-5H-pyrido[3,2-b]indol-9-yl}-1λ^6,2-thiazolidine-1,1-dione], > 8.30; under `Cc1noc(C)c1-c1cnc2c3cc(C4CCN(C(=O)CO)CC4)ccc3n([C@H](c3ccccc3)C3CCOCC3)c2c1` [Example 6, 1-{4-[3-(Dimethyl-1,2-oxazol-4-yl)-5-[(S)-oxan-4-yl(phenyl)methyl]-5H-pyrido[3,2-b]indol-8-yl]piperidin-1-yl}-2-hydroxyethan-1-one], > 8.30. Take `[2H]C([2H])([2H])c1nnn(C)c1-c1cnc2c3c(N4CCCS4(=O)=O)ccc(S(C)(=O)=O)c3n([C@]([2H])(c3ccccc3)C3CCOCC3)c2c1` [Example 38, 2-{6-Methanesulfonyl-3-[4-(^2H3)methyl-1-methyl-1H-1,2,3-triazol-5-yl]-5-[(S)-oxan-4-yl(phenyl)(^2H)methyl]-5H-pyrido[3,2-b]indol-9-yl}-1λ^6,2-thiazolidine-1,1-dione]: the pIC50 was > 8.30. Under `Cc1nnn(C)c1-c1cnc2c3cc(N4C[C@@H](C)O[C@@H](C)C4)ccc3n(C(c3ccccc3)C3CCOCC3)c2c1` (stereo in doubt) [Example 3, (2R,6S)-4-[3-(Dimethyl-1H-1,2,3-triazol-5-yl)-5-[(R)-oxan-4-yl(phenyl)methyl]-5H-pyrido[3,2-b]indol-8-yl]-2,6-dimethylmorpholine] stands > 8.30; under `[2H]C([2H])([2H])c1nnn(C)c1-c1cnc2c3c(N4CCCS4(=O)=O)ccc(S(C)(=O)=O)c3n(C(c3ncccc3F)C3CCOCC3)c2c1` (stereo not shown) [Example 36, 2-{5-[(3-Fluoropyridin-2-yl)(oxan-4-yl)methyl]-6-methanesulfonyl-3-[4-(^2H3)methyl-1-methyl-1H-1,2,3-triazol-5-yl]-5H-pyrido[3,2-b]indol-9-yl}-1λ^6,2-thiazolidine-1,1-dione], > 5.82; under `Cc1nnn(C)c1-c1cnc2c3ccc(C4(C)CNC(=O)O4)cc3n([C@H](c3ccccc3)C3CCOCC3)c2c1` (single isomer, unassigned) [Example 9], > 8.30.

In the case of `Cc1nnn(C)c1-c1cnc2c3cc(N4CCNCC4)ccc3n([C@H](c3ccccc3)C3CCOCC3)c2c1` [Example 13, 1-[3-(Dimethyl-1H-1,2,3-triazol-5-yl)-5-[(S)-oxan-4-yl(phenyl)methyl]-5H-pyrido[3,2-b]indol-8-yl]piperazine], the pIC50 was > 8.30. Consider `Cc1nnn(C)c1-c1cnc2c3ccc(-c4nnn[nH]4)cc3n([C@H](c3ccccc3)C3CCOCC3)c2c1` [Example 11, 5-[3-(Dimethyl-1H-1,2,3-triazol-5-yl)-5-[(S)-oxan-4-yl(phenyl)methyl]-5H-pyrido[3,2-b]indol-7-yl]-1H-1,2,3,4-tetrazole], for which the negative-log IC50 (pIC50) is > 9.00. Turning to `Cc1nnn(C)c1-c1cnc2c3c(N4CCNCC4)ccc(S(C)(=O)=O)c3n([C@H](c3ccccc3)C3CCOCC3)c2c1` [Example 21, 1-[3-(Dimethyl-1H-1,2,3-triazol-5-yl)-6-methanesulfonyl-5-[(S)-oxan-4-yl(phenyl)methyl]-5H-pyrido[3,2-b]indol-9-yl]piperazine], the pIC50 was > 8.30. Under `Cc1nnn(C)c1-c1cnc2c3ccc(N4CCN(S(=O)(=O)N(C)C)CC4)cc3n([C@H](c3ccccc3)C3CCOCC3)c2c1` [Example 50, 4-[3-(Dimethyl-1H-1,2,3-triazol-5-yl)-5-[(S)-oxan-4-yl(phenyl)methyl]-5H-pyrido[3,2-b]indol-7-yl]-N,N-dimethylpiperazine-1-sulfonamide] stands > 8.30. As for `[2H]C([2H])([2H])c1nnn(C)c1-c1cnc2c3ccc(C4(O)CCNCC4)c(F)c3n([C@H](c3ccccc3)C3CCOCC3)c2c1` [Example 53, 4-{6-Fluoro-3-[4-(^2H3)methyl-1-methyl-1H-1,2,3-triazol-5-yl]-5-[(S)-oxan-4-yl(phenyl)methyl]-5H-pyrido[3,2-b]indol-7-yl}piperidin-4-ol], the negative logarithm of the IC50 (pIC50) is > 9.00. Regarding `[2H]C([2H])([2H])c1nnn(C)c1-c1cnc2c3ccc(N4CCC(S(C)(=O)=O)CC4)cc3n(C(c3ncccc3F)C3CCOCC3)c2c1` (stereo not shown) [Example 70, 3-Fluoro-2-{[7-(4-methanesulfonylpiperidin-1-yl)-3-[4-(^2H3)methyl-1-methyl-1H-1,2,3-triazol-5-yl]-5H-pyrido[3,2-b]indol-5-yl](oxan-4-yl)methyl}pyridine], the pIC50 was > 9.00. Turning to `Cc1nnn(C)c1-c1cnc2c3c(N4CCCS4(=O)=O)ccc(S(C)(=O)=O)c3n([C@H](c3ccccc3)C3CCOCC3)c2c1` [Example 19, 2-[3-(Dimethyl-1H-1,2,3-triazol-5-yl)-6-methanesulfonyl-5-[(S)-oxan-4-yl(phenyl)methyl]-5H-pyrido[3,2-b]indol-9-yl]-1λ^6,2-thiazolidine-1,1-dione], the pIC50 is > 9.00. For `[2H]C([2H])([2H])c1nnn(C)c1-c1cnc2c3ccc(N4CCS(=O)(=O)CC4)cc3n(C(c3ncccc3F)C3CCOCC3)c2c1` (stereo not shown) [Example 67, 4-{5-[(3-Fluoropyridin-2-yl)(oxan-4-yl)methyl]-3-[4-(^2H3)methyl-1-methyl-1H-1,2,3-triazol-5-yl]-5H-pyrido[3,2-b]indol-7-yl}-1λ^6,4-thiomorpholine-1,1-dione], the pIC50 is > 8.30. As to `Cc1nnn(C)c1-c1cnc2c3ccc(N4CCCOC4=O)cc3n([C@H](c3ccccc3)C3CCOCC3)c2c1` [Example 12, 3-[3-(Dimethyl-1H-1,2,3-triazol-5-yl)-5-[(S)-oxan-4-yl(phenyl)methyl]-5H-pyrido[3,2-b]indol-7-yl]-1,3-oxazinan-2-one], the pIC50 is > 8.30. In the case of `[2H]C([2H])([2H])c1nnn(C)c1-c1cnc2c3ccc(C4(C)COC(=O)N4)c(F)c3n([C@H](c3ccccc3)C3CCOCC3)c2c1` (stereo partly drawn) [Example 56, 4-{6-Fluoro-3-[4-(^2H3)methyl-1-methyl-1H-1,2,3-triazol-5-yl]-5-[(S)-oxan-4-yl(phenyl)methyl]-5H-pyrido[3,2-b]indol-7-yl}-4-methyl-1,3-oxazolidin-2-one], the pIC50 is > 9.00. `[2H]C([2H])([2H])c1nnn(C)c1-c1cnc2c3cc(N4CCS(=O)(=O)[C@H](C)C4)ccc3n([C@H](c3ccccc3F)C3CCOCC3)c2c1` [Example 51, (2R)-4-{5-[(S)-(2-Fluorophenyl)(oxan-4-yl)methyl]-3-[4-(^2Ha)methyl-1-methyl-1H-1,2,3-triazol-5-yl]-5H-pyrido[3,2-b]indol-8-yl}-2-methyl-1λ^6,4-thiomorpholine-1,1-dione]: the pIC50 is > 9.00. As for `[2H]C([2H])([2H])c1nnn(C)c1-c1cnc2c3ccc(N4CCC(F)(F)CC4)cc3n(C(c3ncccc3F)C3CCOCC3)c2c1` (stereo not shown) [Example 65, 2-{[7-(4,4-Difluoropiperidin-1-yl)-3-[4-(^2H3)methyl-1-methyl-1H-1,2,3-triazol-5-yl]-5H-pyrido[3,2-b]indol-5-yl](oxan-4-yl)methyl}-3-fluoropyridine], the negative-log IC50 (pIC50) is > 9.00. As for `[2H]C([2H])([2H])c1nnn(C)c1-c1cnc2c3cc(N4CCS(=O)(=O)CC4)ccc3n([C@H](c3ccc(F)cc3)C3CCOCC3)c2c1` [Example 39, 4-{5-[(S)-(4-Fluorophenyl)(oxan-4-yl)methyl]-3-[4-(^2H3)methyl-1-methyl-1H-1,2,3-triazol-5-yl]-5H-pyrido[3,2-b]indol-8-yl}-1λ^6-thiomorpholine-1,1-dione], the figure is > 8.30.
